From ChEMBL document CHEMBL4152313, “Design, synthesis and bioevaluation of 2-mercapto-6-phenylpyrimidine-4-carboxylic acid derivatives as potent xanthine oxidase inhibitors” (Eur J Med Chem, 2018)

Biological target: Xanthine dehydrogenase/oxidase (Homo sapiens, UniProt P47989)
Test: Inhibition of xanthine oxidase (unknown origin) using xanthine as substrate preincubated for 5 mins followed by substrate addition measured for 20 mins by spectrophotometric method

Sequence of Xanthine dehydrogenase/oxidase (P47989 whole entry): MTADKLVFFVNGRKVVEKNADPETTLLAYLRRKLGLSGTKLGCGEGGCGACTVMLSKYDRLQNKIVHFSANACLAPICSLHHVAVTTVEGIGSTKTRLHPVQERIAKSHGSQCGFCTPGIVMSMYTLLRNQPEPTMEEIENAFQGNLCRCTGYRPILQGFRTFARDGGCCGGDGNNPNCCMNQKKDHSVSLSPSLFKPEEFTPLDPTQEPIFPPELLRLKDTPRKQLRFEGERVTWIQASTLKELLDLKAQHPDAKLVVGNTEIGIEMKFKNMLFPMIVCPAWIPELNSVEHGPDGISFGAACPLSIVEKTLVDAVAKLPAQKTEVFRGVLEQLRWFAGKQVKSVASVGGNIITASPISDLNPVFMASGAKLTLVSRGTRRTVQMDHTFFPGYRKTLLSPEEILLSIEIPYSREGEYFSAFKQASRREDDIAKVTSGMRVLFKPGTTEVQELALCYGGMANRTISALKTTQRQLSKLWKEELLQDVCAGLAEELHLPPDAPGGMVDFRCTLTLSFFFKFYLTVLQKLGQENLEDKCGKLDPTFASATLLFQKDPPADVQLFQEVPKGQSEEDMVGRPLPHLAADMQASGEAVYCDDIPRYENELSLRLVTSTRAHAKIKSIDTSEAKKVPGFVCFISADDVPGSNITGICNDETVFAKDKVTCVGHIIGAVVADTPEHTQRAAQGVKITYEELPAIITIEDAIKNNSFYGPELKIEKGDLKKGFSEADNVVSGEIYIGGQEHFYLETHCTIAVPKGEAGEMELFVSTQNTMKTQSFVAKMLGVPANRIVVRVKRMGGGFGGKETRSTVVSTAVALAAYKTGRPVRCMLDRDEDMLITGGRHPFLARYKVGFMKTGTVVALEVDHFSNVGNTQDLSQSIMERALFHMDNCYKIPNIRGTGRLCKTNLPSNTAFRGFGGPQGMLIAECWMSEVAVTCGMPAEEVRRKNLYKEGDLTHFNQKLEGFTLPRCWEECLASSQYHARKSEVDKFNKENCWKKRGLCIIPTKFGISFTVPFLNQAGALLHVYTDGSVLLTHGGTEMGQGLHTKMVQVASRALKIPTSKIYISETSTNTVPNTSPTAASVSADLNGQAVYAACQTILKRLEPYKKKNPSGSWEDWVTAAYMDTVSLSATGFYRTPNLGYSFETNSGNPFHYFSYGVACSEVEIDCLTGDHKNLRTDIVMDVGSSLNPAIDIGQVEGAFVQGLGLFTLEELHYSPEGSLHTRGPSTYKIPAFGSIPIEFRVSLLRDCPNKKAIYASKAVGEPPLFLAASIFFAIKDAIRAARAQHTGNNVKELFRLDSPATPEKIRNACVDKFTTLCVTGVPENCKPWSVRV

- IC50: 13 nM
SMILES: Cc1nc(-c2ccc(OCC(C)C)c(C#N)c2)sc1C(=O)O [FEBUXOSTAT]
